The record followed here is patent US4221909A, “P-Acetamidobenzoic acid salts of 9-(hydroxyalkyl) purines” (Sloan-Kettering Institute for Cancer Research, priority 1978, dated 1980).

SMILES strings stand for the structures. ≈ marks a conversion by molar mass, not a printed value. Entries after “also recorded” stand apart in the source; their conditions may differ.

One test concerns immune response. As to the kind of experiment: Immunomodulation / immune response potentiation (summary). The test is classed as cell-based. The settings on record: for potentiation of the immune response: three test systems of Table 4; for DIP.PAcBA potentiation of Immunpotentiation: DIP.PAcBA salt vs parent compound. The source says: (§1) The following three assay procedures are used to evaluate the ability of the test substances to modulate the activity of several classes of cells in the immune system. In these systems it is possible to identify both immunopotentiating activity (evidence by an enhancement of the parameter examined) as well as immunosuppressant activity (evidenced by an inhibition of the parameter examined).
Table 4 above presents the results of an evaluation of a number of these subject compounds as potentiators of the immune response. Three different test systems were used. The first involves a measure of the ability of the test compound to enhance the ability of mouse lymphocytes to proliferate in response to a plant mitogen (Con A). The second involves measuring the ability of the test compounds to enhance human lymphocyte proliferation in response to a second plant mitogen (PHA). The third system measures the ability of these test substances to enhance macrophage proliferation in response to a natural lymphokine (MMF, Macrophage Mitogenic Factor).

The subject of the next test is influenza virus. Put plainly: Anti-influenza activity (summary). The settings on record: for number of different strains of influenza virus inhibited: concentrations ranging from 1-150 μg/ml. The test is classed as cell-based.
A further test concerns spleen cells. As to the kind of experiment: In vitro treatment of Con A stimulated spleen cells. It counts as cell-based, mice (Balb/C). The following applies: compound 1 μg/ml; suboptimal Con A 5 μg/ml. The source says:
The purpose of this study was to determine the effects of in vivo treatment of mice with the compounds NPT 15392 and 15410 on the subsequent activity of spleen cells isolated from these animals and evaluated in vitro for their proliferative response to the mitogen, Concanavalin A (Con A).
The following day, each group was sacrificed and the spleens removed and pooled. The spleens were minced and the cells washed in RPMI-1640 medium (Grand Island Biologicals) supplemental with 2 mm glutamine and antibiotics. The cell concentration of each preparation was determined by a Coulter counter and adjusted to 5×10^6 cells/ml with RPMI medium.
Microtiter assays were carried out in 0.2 ml incubations, containing 5×10^5 cells and Con A or Con A and compounds at the indicated concentrations. All assays were performed with 6 replicates and compared with a blank assay containing only cells. The assay plates were incubated at 37° in 5% CO2 for 4 days. During the final 18-20 hours of incubation, […] of ^3 HTdR (10 μCi/ml, 6 Ci /m mole) were added to each culture. The cultures were harvested with a multiple automatic sample harvester (MASH) unit and the incorporated ^3 HTdR determined with a Beckman LS 8000 liquid scintillation counter, as a measure of cell proliferation. The results are tabulated as the ratio of the activity in the Con A or Con A and compound treated cultures to the blank cultures. […]

In a further test the test system is L-1210 cells. Put plainly: Anti-Leukemic Activity (Inhibition of L-1210 Growth). It counts as cell-based, mouse. How it is done: Leukemic cells isolated from mice bearing the L-1210 tumor are cultured in vitro and their growth can be measured by counting the number of cells in the culture over a period of time. The incorporation of a test substance into the media will prevent the growth of the leukemic cells, an indication of an effective anti-leukemic agent.
Check to see that there is adequate cell growth in the stock cultures. Use cells 48-72 hours after transfers are done.
Weigh out the drugs at 50 times the desired final concentration and made serial dilutions.
Make up the final medium using 500 mls McCoy's 5A medium, 15% fetal calf serum, 5 mls penicillin-streptomycin solution, and 5 mls antibiotic-antimycotic solution and let it stand at room temperature.
Using sterile technique, add 0.1 ml of the drug dilutions to each tube.
Add an appropriate quantity of cells to the prepared medium. After mixing, remove a 0.5 ml sample, place it in a vial containing […] of saline, and count it on the Coulter Counter. Multiply the count by 40 to compensate for the 40 fold dilution (0.5 ml into […] and record the inoculum.
Add 5 mls of cell suspension to each tube. Swirl the bottle every 4 tubes to insure a more uniform distribution of cells.
Tighten the caps and place in the CO2 incubator at 36°-38° for 96 hours. […]

Test [1] deals with human peripheral blood lymphocytes. As to the kind of experiment: Mitogen Induced (PHA) Human Lymphocyte Proliferation. It counts as cell-based.
The subject of the next test is Mouse spleen cells. As to the kind of experiment: Mitogen Induced (Con A) Mouse Lymphocyte Proliferation. The test is classed as cell-based.
Text: as §1
1. Mitogen--Induced Mouse Spleen Cell Assay--Mouse spleen cells contain a population of both B and T lymphocytes which can be stimulated by a number of foreign substances (e.g., plant mitogens such as Con A) to proliferate. This enhanced proliferation is an indication of enhanced cell mediated immunity. The method below describes the system used to evaluate test substances as immunopotentiators.
Concanavalin A (Calbiochem, La Jolla, Calif.), Lot #210073, lyophilized in NaCl, was prepared first as a 1% solution and diluted as a 2× concentration for each dilution (0.5, 1.0, 2.5 μg/ml).
Six to eight week old male Balb/c and C3 H inbred mice were obtained from the following sources: Flow Research Animals, Inc., Dublin, Va.; Charles River Breeding Laboratories, Wilmington, Mass.; Laboratory Supply Company, Indianapolis, Ind.; and Lionel Strong Foundation, San Diego, Calif.
Three to five mice were sacrificed by cervical dislocation and the spleens aseptically removed. Pooled spleens were minced and teased with sterile forceps; then strained through a double layer of nylon mesh. The cell suspension was washed once with 15 ml of RPMI 1640 supplemented with 5% fetal calf serum and antibiotics. Cells were cultured at a concentration of 10^6 cells/0.1 ml/well in micro-plates. Cultures were incubated in the presence or absence of mitogen in a humidified atmosphere containing 5% CO2 for 48 hours. The test compound was added to cultures at various concentrations concommitant with mitogen.
Proliferation was assayed by the degree of incorporation of 1.0 μCi of [^3 H] thymidine over an 18 hour incubation period. Cultures were harvested by a MASH unit (Otto Hiller Co., Madison, Wisconsin) and thymidine incorporation was assayed by liquid scintillation spectrometry. Cultures were performed in triplicate and data are expressed as means plus or minus the strandard error of the experimental means. Drug stimulation indices over control values were also calculated and portrayed graphically.

Turning to `CCCCCC[C@H]([C@H](C)O)n1cnc2c(=O)[nH]cnc21` (relative stereo) [NPT 15392, Erythro-9-(2-Hydroxy-3-Nonyl)Hypoxanthine], the “potentiation of the immune response” value with immune response is recorded as “Significant potentiation”. For the same compound, in the test with influenza virus, the “anti-influenza activity by themselves” value is given as “significant anti-influenza activity” and the “number of different strains of influenza virus inhibited” value is “at least 4 different strains”. In the test with spleen cells, the “augmentation of Con A stimulation” value is listed as “marked ability to augment the Con A stimulation”.

Consider `CCCCCC[C@H]([C@H](C)O)n1cnc2c(=O)[nH]cnc21` (relative stereo) [NPT 15410], for which the “DIP.PAcBA potentiation of Anti-Leukemia activity” value in the test with L-1210 cells (DIP.PAcBA salt vs parent compound) is given as “Yes”. In addition, the “Maximum Percent Change, Mitogen Induced (PHA) Human Lymph. Prolif.” value in test [1] (1.0-10) is 60%; in test [1] (.01-1.0), 30-50%. Also, the “DIP.PAcBA potentiation of Immunpotentiation” value in the test with immune response is given as “Yes”. For the same compound, in the test on immune response, the “potentiation of the immune response” value was “Significant potentiation”. Besides, the “Maximum Percent Change, Mitogen Induced (Con A) Mouse Lymph. Prolif.” value with Mouse spleen cells (1.0-10) came out at 40%; with Mouse spleen cells (10-100) it was 40%; with Mouse spleen cells (.01-1.0), 140%. Besides, the “DIP.PAcBA potentiation of Anti-Influenza activity” value in the test on influenza virus is reported as “does not potentiate the anti-influenza activity; also recorded: Both are equally active”. Also, the “augmentation of Con A stimulation” value with spleen cells is reported as “marked ability to augment the Con A stimulation”.

`CCCCCCC(CO)n1cnc2c(=O)[nH]cnc21` (centres unmarked) [NPT 15417]: in the test with L-1210 cells (Mus musculus, L1210, 96 h, 96 hours, text: μg/ml, read-out: I50 (concentration of drug inhibiting growth of L-1210)), the IC50 came out at 47 µg/mL (≈ 178 µM). Also, the results for the “Maximum Percent Change, Mitogen Induced (PHA) Human Lymph. Prolif.” value in test [1] (1.0-10), in test [1] (10-100) and in test [1] (.01-1.0) were 0%, -50% and 0%, respectively. The “Maximum Percent Change, Mitogen Induced (Con A) Mouse Lymph. Prolif.” value is reported as 0% in the test with Mouse spleen cells (1.0-10, listed as 15417); 0% in the test with Mouse spleen cells (10-100, listed as 15417); 0% in the test with Mouse spleen cells (.01-1.0, listed as 15417). The “anti-influenza activity by themselves” value in the test on influenza virus is “significant anti-influenza activity”. Also, the “number of different strains of influenza virus inhibited” value in the test on influenza virus is recorded as “at least 4 different strains”.

`CCCCCCC(CO)n1cnc2c(=O)[nH]cnc21` (centres unmarked) [NPT 15418]: the “DIP.PAcBA potentiation of Immunpotentiation” value in the test on immune response was “Yes”. Moreover, the “potentiation of the immune response” value in the test on immune response is recorded as “Significant potentiation”. Further, the “Maximum Percent Change, Mitogen Induced (Con A) Mouse Lymph. Prolif.” value is listed as 73% in the test on Mouse spleen cells (1.0-10, listed as 15418); 26% with Mouse spleen cells (10-100, listed as 15418); 41% with Mouse spleen cells (.01-1.0, listed as 15418). Also, in the test with influenza virus, the “DIP.PAcBA potentiation of Anti-Influenza activity” value is “does potentiate the anti-influenza activity and Yes”.
